In US8921267B2, “Safening 6-(trisubstituted phenyl)-4-amino-2-pyridinecarboxylate herbicide injury on cereal crops” (Dow AgroSciences LLC, priority 2008, dated 2014):

Key:
[1] = tested on: chickweed (Stellaria media L; STEME); test: Postemergence herbicidal activity, greenhouse, visual injury: chickweed; assay type: in vivo; conditions: applied alone
Description: (§1) Evaluation of Postemergence Herbicidal Safening in Cereal Crops
(§2) Seeds of the desired test plant species were planted in Sun Gro MetroMix® 306 planting mixture, which typically has a pH of 6.0 to 6.8 and an organic matter content of about 30 percent, in plastic pots with a surface area of 103.2 square centimeters (cm^2). When required to ensure good germination and healthy plants, a fungicide treatment and/or other chemical or physical treatment was applied. The plants were grown for 7-36 days (d) in a greenhouse with an approximate 14-hour (h) photoperiod which was maintained at about 18° C. during the day and 17° C. during the night. Nutrients and water were added on a regular basis and supplemental lighting was provided with overhead metal halide 1000-Watt lamps as necessary. The plants were employed for testing when they reached the second or third true leaf stage.
(§3) Weighed amounts of esters (methyl) or salts (TEA [triethylammonium], K [potassium]) of 4-amino-3-chloro-6-(4-chloro-2-fluoro-3-methoxyphenyl)pyridine-2-carboxylic acid (Compound 1) were dissolved in a volume of 97:3 volume/volume (v/v) acetone/dimethylsulfoxide (DMSO) to obtain stock solutions. […] The concentrated stock solutions were diluted with an aqueous mixture of 1.5% v/v of Agri-dex crop oil concentrate to provide the appropriate application rates. Compound requirements are based upon a 12 mL application volume at a rate of 187 liters per hectare (L/ha). Stocks solutions of the safeners were prepared following the same procedure. Spray solutions of the safeners and experimental compound mixtures were prepared by adding the stock solutions to the appropriate amount of dilution solution to form a 12 mL spray solution with active ingredients in two-way combinations. Formulated compounds were applied to the plant material with an overhead Mandel track sprayer equipped with 8002E nozzles calibrated to deliver 187 L/ha over an application area of 0.503 square meters (m^2) at a spray height of 18 inches (43 centimeters (cm)) above average plant canopy. Control plants were sprayed in the same manner with the solvent blank.
(§4) The treated plants and control plants were placed in a greenhouse as described above and watered by sub-irrigation to prevent wash-off of the test compounds. After 20-22 d, the condition of the test plants as compared with that of the control plants was determined visually and scored on a scale of 0 to 100 percent where 0 corresponds to no injury and 100 corresponds to complete kill.
(§5) Colby's equation was used to determine the herbicidal effects expected from the mixtures (Colby, S. R. Calculation of the synergistic and antagonistic response of herbicide combinations. Weeds 1967, 15, 20-22.).
(§6) The following equation was used to calculate the expected activity of mixtures containing two active ingredients, A and B: Expected=A+B−(A×B/100)
(§7) A=observed efficacy of active ingredient A at the same concentration as used in the mixture.
(§8) B=observed efficacy of active ingredient B at the same concentration as used in the mixture.

[2] = tested on: Russian thistle (Salsola iberica L; SASKR); test: Postemergence herbicidal activity, greenhouse, visual injury: Russian thistle; assay type: in vivo; conditions: applied alone
Description: as §1, §2, §3, §4, §5, §6, §7, §8

[3] = tested on: purple deadnettle (Lamium purpureum L; LAMPU); test: Postemergence herbicidal activity, greenhouse, visual injury: purple deadnettle; assay type: in vivo
Description: as §1, §2, §3, §4, §5, §6, §7, §8

[4] = tested on: barley (Hordeum vulgare L; HORVS); test: Postemergence herbicidal safening, greenhouse, visual injury: barley; assay type: in vivo; conditions: for HORVS Ob: applied alone
Description: as §1, §2, §3, §4, §5, §6, §7, §8

[5] = tested on: wild buckwheat (Polygonum convolvulus L; POLCO); test: Postemergence herbicidal activity, greenhouse, visual injury: wild buckwheat; assay type: in vivo; conditions: applied alone
Description: as §1, §2, §3, §4, §5, §6, §7, §8

[6] = tested on: cleavers (Galium aparine L; GALAP); test: Postemergence herbicidal activity, greenhouse, visual injury: cleavers; assay type: in vivo; conditions: applied alone
Description: as §1, §2, §3, §4, §5, §6, §7, §8

barley (HORVW) = test: Postemergence herbicidal safening, greenhouse, visual injury: barley (HORVW)
[7] = tested on: corn poppy (Papaver rhoeas L; PAPRH); test: Postemergence herbicidal activity, greenhouse, visual injury: corn poppy; assay type: in vivo; conditions: for PAPRH Ob: applied alone
Description: as §1, §2, §3, §4, §5, §6, §7, §8

[8] = tested on: wild pansy (Viola tricolor L; VIOTR); test: Postemergence herbicidal activity, greenhouse, visual injury: wild pansy; assay type: in vivo; conditions: applied alone
Description: as §1, §2, §3, §4, §5, §6, §7, §8

[9] = tested on: bird's-eye speedwell (Veronica persica L; VERPE); test: Postemergence herbicidal activity, greenhouse, visual injury: bird's-eye speedwell; assay type: in vivo; conditions: applied alone
Description: as §1, §2, §3, §4, §5, §6, §7, §8

[10] = tested on: wheat (Triticum aestivum L; TRZAW); test: Postemergence herbicidal safening, greenhouse, visual injury: wheat (TRZAW); assay type: in vivo
Description: as §1, §2, §3, §4, §5, §6, §7, §8

[11] = tested on: durum wheat (Triticum durum L; TRZDU); test: Postemergence herbicidal safening, greenhouse, visual injury: durum wheat; assay type: in vivo
Description: as §1, §2, §3, §4, §5, §6, §7, §8

[12] = tested on: wheat (Triticum aestivum L; TRZAS); test: Postemergence herbicidal safening, greenhouse, visual injury: wheat; assay type: in vivo; conditions: for TRZAS Ob: applied alone
Description: as §1, §2, §3, §4, §5, §6, §7, §8

CCOC(=O)C1=NN(c2ccc(Cl)cc2Cl)C(C)(C(=O)OCC)C1 (stereo not shown) [Mefenpyr-diethyl]
STEME Ob ([1]; 17.5 g/ha): 0
STEME Ob ([1]; 35 g/ha): 0
STEME Ob ([1]; 70 g/ha): 0
STEME Ob ([1]; 140 g/ha): 0
SASKR Ob ([2]; 17.5 g/ha): 0
SASKR Ob ([2]; 35 g/ha): 0
SASKR Ob ([2]; 70 g/ha): 0
SASKR Ob ([2]; 140 g/ha): 0
LAMPU Ob (Observed values) ([3]; safener 4.4 g/ha alone): 0
LAMPU Ob (Observed values) ([3]; safener 8.8 g/ha alone): 0
LAMPU Ob (Observed values) ([3]; safener 17.5 g/ha alone): 0
LAMPU Ob (Observed values) ([3]; safener 35 g/ha alone): 0
HORVS Ob ([4]; 17.5 g/ha): 0%
HORVS Ob ([4]; 35 g/ha): 0%
HORVS Ob ([4]; 70 g/ha): 0%
HORVS Ob ([4]; 140 g/ha): 0%
HORVS Ob (Observed values) ([4]; safener 4.4 g/ha alone): 0
HORVS Ob (Observed values) ([4]; safener 8.8 g/ha alone): 0
HORVS Ob (Observed values) ([4]; safener 17.5 g/ha alone): 0
HORVS Ob (Observed values) ([4]; safener 35 g/ha alone): 0
POLCO Ob ([5]; 17.5 g/ha): 0
POLCO Ob ([5]; 35 g/ha): 0
POLCO Ob ([5]; 70 g/ha): 0
POLCO Ob ([5]; 140 g/ha): 0
GALAP Ob ([6]; 17.5 g/ha): 0
GALAP Ob ([6]; 35 g/ha): 0
GALAP Ob ([6]; 70 g/ha): 0
GALAP Ob ([6]; 140 g/ha): 0
HORVW Ob (Observed values) (barley (HORVW); safener 4.4 g/ha alone): 0%
HORVW Ob (Observed values) (barley (HORVW); safener 8.8 g/ha alone): 0%
HORVW Ob (Observed values) (barley (HORVW); safener 17.5 g/ha alone): 0%
HORVW Ob (Observed values) (barley (HORVW); safener 35 g/ha alone): 0%
PAPRH Ob ([7]; 17.5 g/ha): 0
PAPRH Ob ([7]; 35 g/ha): 0
PAPRH Ob ([7]; 70 g/ha): 0
PAPRH Ob ([7]; 140 g/ha): 0
PAPRH Ob (Observed values) ([7]; safener 4.4 g/ha alone): 0
PAPRH Ob (Observed values) ([7]; safener 8.8 g/ha alone): 0
PAPRH Ob (Observed values) ([7]; safener 17.5 g/ha alone): 0
PAPRH Ob (Observed values) ([7]; safener 35 g/ha alone): 0
VIOTR Ob ([8]; 17.5 g/ha): 0
VIOTR Ob ([8]; 35 g/ha): 0
VIOTR Ob ([8]; 70 g/ha): 0
VIOTR Ob ([8]; 140 g/ha): 0
VERPE Ob ([9]; 17.5 g/ha): 0
VERPE Ob ([9]; 35 g/ha): 0
VERPE Ob ([9]; 70 g/ha): 0
VERPE Ob ([9]; 140 g/ha): 0
TRZAW Ob (Observed values) ([10]; safener 4.4 g/ha alone): 0%
TRZAW Ob (Observed values) ([10]; safener 8.8 g/ha alone): 0%
TRZAW Ob (Observed values) ([10]; safener 17.5 g/ha alone): 0%
TRZAW Ob (Observed values) ([10]; safener 35 g/ha alone): 0%
TRZDU Ob (Observed values) ([11]; safener 4.4 g/ha alone): 0%
TRZDU Ob (Observed values) ([11]; safener 8.8 g/ha alone): 0%
TRZDU Ob (Observed values) ([11]; safener 17.5 g/ha alone): 0%
TRZDU Ob (Observed values) ([11]; safener 35 g/ha alone): 0%
TRZAS Ob ([12]; 17.5 g/ha): 0%
TRZAS Ob ([12]; 35 g/ha): 0%
TRZAS Ob ([12]; 70 g/ha): 0%
TRZAS Ob ([12]; 140 g/ha): 0%
TRZAS Ob (Observed values) ([12]; safener 4.4 g/ha alone): 0
TRZAS Ob (Observed values) ([12]; safener 8.8 g/ha alone): 0
TRZAS Ob (Observed values) ([12]; safener 17.5 g/ha alone): 0
TRZAS Ob (Observed values) ([12]; safener 35 g/ha alone): 0
